Reference: the SangsterLogP compilation

Assay: method code SF-AS, from DOI: 10.1002/qsar.19890080102
Conditions: pH 1.5

Q: With `NS(=O)(=O)c1cccc(Br)c1` as the molecule, how does the logD read?
A: 1.35

Q: Which logD does the source give for `CCCCOc1cccc(S(N)(=O)=O)c1` here?
A: 2.06

Q: With `CC(C)c1ccc(S(N)(=O)=O)cc1` as the molecule, how does the logD read?
A: 1.71

Q: For `CS(=O)(=O)Nc1ccc(S(N)(=O)=O)cc1`, which logD is on record?
A: -0.4

Q: For `NS(=O)(=O)c1cccc(I)c1`, which logD is on record?
A: 1.58

Q: For `NS(=O)(=O)c1ccc(-c2ccccc2)cc1`, which logD is on record?
A: 2.24

Q: Which logD does the source give for `NS(=O)(=O)c1cccc(Cl)c1` here?
A: 1.16

Q: For `NS(=O)(=O)c1cccc(S(N)(=O)=O)c1`, which logD is on record?
A: -0.5

Q: With `NS(=O)(=O)c1ccc(I)cc1` as the molecule, how does the logD read?
A: 1.55

Q: For `NS(=O)(=O)c1ccc(Br)cc1`, which logD is on record?
A: 1.34

Q: For `CC(C)c1cccc(S(N)(=O)=O)c1`, which logD is on record?
A: 1.66

Q: For `CCCCOc1ccc(S(N)(=O)=O)cc1`, which logD is on record?
A: 2.05

Same assay, conditions: pH 5.5

Q: For `Nc1cccc(S(N)(=O)=O)c1`, which logD is on record?
A: -0.32
